Measurements: PubChem BioAssay AID489033 (Sanford-Burnham Center for Chemical Genomics, 2010)
Active and inactive are the calls of the source. No rule for the calls is given here.

Test system: 697B B-cell line, NF-kB luciferase reporter luminescence
Experiment: inhibitors of B-cell NF-kB luciferase signal – 697B cells, luminescence, selectivity assay for T-cell antigen receptor NF-kB inhibitors, dose response (AID 489033)

Structure (SMILES)	IC50
O=[N+]([O-])c1ccc(Sc2ccc(Cl)c(Cl)c2)nc1	13.1 µM
COc1ccc(N(C(=O)c2ccccc2C)S(=O)(=O)c2cccs2)cc1	> 80 µM (inactive)
CCOc1ccccc1N1CC(O)=C(c2nc3ccccc3s2)C1=N	61 µM (inactive)
Cc1cc(NC(=O)COC(=O)c2ccc(S(=O)(=O)N3CCCc4ccccc43)cc2)no1	> 80 µM (inactive)
Cc1c(C(=O)N/N=C/c2c(O)ccc3ccccc23)nnn1-c1nonc1N	34.7 µM (inactive)
CC1=NNC(=O)/C1=C\c1cn(-c2ccccc2)nc1-c1ccc(Cl)cc1	6.48 µM
CC(Oc1ccc(Cl)cc1Cl)C(=O)Nc1ccncc1 (centres undefined)	> 80 µM (inactive)
COCCCNC(=O)C(=O)Nc1ccc2c(c1)N(S(=O)(=O)c1cccs1)CCC2	> 80 µM (inactive)
CCCCCOC(=O)c1[nH]c2c(c1C)C(=O)CC(c1ccco1)C2 (centres undefined)	> 80 µM (inactive)
CCO[C@H]1OC(C(=O)NCc2nc3ccccc3[nH]2)=C[C@@H](C2CC2)[C@@H]1CCCO	> 80 µM (inactive)
CCOCCOC(=O)c1[nH]c2c(c1C)C(=O)CC(c1cccs1)C2 (centres undefined)	> 80 µM (inactive)
COC(=O)c1[nH]c2ccc(Br)cc2c1NC(=O)CN1CCN(C2CCCCC2)CC1	8.88 µM
COc1ccc(C(=O)/C(C#N)=N/Nc2ccc([N+](=O)[O-])cc2)cc1	18.6 µM
C[C@]12CC[C@H](O)C[C@H]1CC[C@@H]1[C@@H]2CC[C@]2(C)[C@@H](C3=CC(=O)OC3)CC[C@]12O	0.67 µM
Cc1cc(-c2ccc(C(C)C)c(S(=O)(=O)N3CCN(c4ccccc4)CC3)c2)on1	> 80 µM (inactive)
Cc1ccc2cccc(NS(=O)(=O)c3ccccc3)c2n1	0.94 µM
O=C(Nc1ccccc1Cl)/C(Cl)=C(\Cl)S(=O)c1ccccc1 (centres undefined)	0.53 µM
COC(=O)C[C@]1(C(=O)OC)CN(C#N)N(c2ccc(Cl)cc2)C12c1ccccc1-c1ccccc12	4.43 µM
CC(C)(C)OC(=O)NCCCCCc1cn(CC(=O)NCCCCCCCCCCC(=O)N2CCN(C(=O)OC(C)(C)C)CC2)nn1	> 80 µM (inactive)
O=C1c2cccc3cc([N+](=O)[O-])cc(c23)C(=O)N1CCN1CCCC1	18.7 µM
CSc1nccc(-c2nn(-c3ccc(C)cc3)ccc2=O)n1	> 80 µM (inactive)
COc1ccc(NC(=O)Cn2nnc(-c3ccccc3NS(=O)(=O)c3ccc(OC)cc3)n2)cc1	> 80 µM (inactive)
COc1ccccc1-c1nnc2sc(-c3ccc(N(C)C)cc3)nn12	> 80 µM (inactive)
Cc1ccnc2c1ccc1c(C)ccnc12	10.1 µM
COc1ccc(CC(=O)Nc2cccc(-c3nnc(-c4cccc(C)c4)o3)c2)cc1OC	8.4 µM

Structure (SMILES)	IC50
Cc1c(C(=O)N2CCOCC2)[nH]c2c1C(=O)CC(c1ccccc1Cl)C2 (centres undefined)	> 80 µM (inactive)
CCN1/C(=C/c2ccc3cc(C)ccc3[n+]2CC)Sc2ccc3sccc3c21	9.39 µM
COc1cccc(N2CCN(c3ncnc4c3cnn4-c3ccc(C)cc3C)CC2)c1	1.58 µM
O=C(NCc1cccs1)C1CCN(c2ccc(S(=O)(=O)N3CCOCC3)cc2Cl)CC1	> 80 µM (inactive)
Cc1ccc(-c2nc(-c3ccccn3)no2)cc1	3.78 µM
Cc1ccc2nc(-c3ccc4c(c3)OCCO4)cn2c1	0.47 µM
COc1ccc(CC(=O)Nc2nc(-c3ccc(F)c(F)c3)cs2)cc1OC	57.5 µM (inactive)
C#CC[N+](C)(C)CCCCCCCCCCCC	2.56 µM
Cc1ccccc1NC1=C/C(=N\S(=O)(=O)c2cccs2)c2ccccc2C1=O	6.69 µM
CSc1ccc(COC(=O)c2cc([N+](=O)[O-])ccc2N2CCOCC2)cc1	30 µM (inactive)
O=S(=O)(c1ccc2c(c1)OCCO2)N1CCN(c2ncnc3sccc23)CC1	4 µM
CC1CC(C)CN(S(=O)(=O)c2ccc(NC(=O)c3ccc(=O)[nH]c3)cc2)C1 (centres undefined)	> 80 µM (inactive)
C[C@]12CC[C@H](O)C[C@H]1CC[C@@H]1[C@@H]2C[C@@H](O)[C@]2(C)[C@@H](C3=CC(=O)OC3)CC[C@]12O	1.6 µM
CCOC(=O)c1c(C)[nH]c(C(=O)N/N=C/c2ccc(Br)cc2)c1C	> 80 µM (inactive)
Brc1ccc2c(c1)C(C1=NCCN1)c1ccccc1CS2 (centres undefined)	> 80 µM (inactive)
O=C(Nc1ccc(S(=O)(=O)N2CCOCC2)cc1)c1ccc(CN2CCc3ccccc3C2)cc1	> 80 µM (inactive)
COc1cc(/C=C2/SC(=Nc3ccc(O)cc3)NC2=O)ccc1O	23.4 µM (inactive)
CC(Oc1ccc(Cl)cc1Cl)c1nc(-c2ccc(NC(=O)c3ccncc3)cc2)no1 (centres undefined)	29.5 µM (inactive)
Cc1nc2ccccc2c2c1CC(C(C)(Cl)Br)O2 (centres undefined)	22.8 µM (inactive)
Cc1ccc(COC(=O)c2cc([N+](=O)[O-])ccc2N2CCOCC2)cc1	> 80 µM (inactive)
CN(Cc1ccccc1)C1=CC(=[N+]2CCCC2)CC(C)(C)C1	> 80 µM (inactive)
Cc1ccc(O)c(N=Nc2nccs2)c1	8.6 µM
Cc1nn(-c2ccccc2Cl)c(Cl)c1/C=N/Nc1nc2ccccc2s1	< 0.16 µM
CC1Cc2cc(-c3csc(NC(=O)Cc4cccs4)n3)ccc2N1S(C)(=O)=O (centres undefined)	13.9 µM
O=C(Nc1ccc(C(F)(F)F)cc1)c1cccn(Cc2ccc3c(c2)OC(F)(F)O3)c1=O	> 80 µM (inactive)

Structure (SMILES)	IC50
COC(=O)c1ccccc1NC(=O)Cn1c(-c2nonc2N)nc2ccccc21	> 80 µM (inactive)
CCOc1ccccc1NS(=O)(=O)c1ccc(-c2cnc(C3CC3)o2)cc1	> 80 µM (inactive)
COc1cc(NS(=O)(=O)c2ccc(C)cc2)c2ncccc2c1	1.05 µM
Cc1ccc(C(=O)c2cc([N+](=O)[O-])ccc2N2CCCCC2)cc1	> 80 µM (inactive)
CC(C)Cn1c(N)c(C(=O)CSc2ccc3c(c2)OCCO3)c(=O)n(C)c1=O	51.7 µM (inactive)
CCOc1ccc2c(c1)sc(N)[n+]2Cc1cc(C)cc2cccnc12	33.3 µM (inactive)
COc1cc(C(=O)Nc2ccc3c(c2)ncn3C)cc(OC)c1OC	> 80 µM (inactive)
Cc1cc(C(=O)N2CC=C(c3ccccc3)CC2)c2ccccc2n1	> 80 µM (inactive)
COc1ccc(C2=Nn3c([n+](C)c4ccccc43)SC2)cc1	31 µM (inactive)
CC1(C)Cc2c(sc(NC(=O)COc3cccc4ccccc34)c2C#N)C(C)(C)N1	8.2 µM
Oc1ccccc1N=Nc1nc(-c2ccccc2)c(-c2ccccc2)[nH]1	4.55 µM
O=C(Nc1ccc(S(=O)(=O)Nc2ccc(F)cc2)cc1)c1ccc(CN2CCOCC2)cc1	> 80 µM (inactive)
Cc1ccc(Nc2nc(-c3c(C)nc4ncccn34)cs2)cc1	> 80 µM (inactive)
COc1cc(-c2noc(C)c2/C=C/c2cccc([N+](=O)[O-])c2)cc(OC)c1OC	> 80 µM (inactive)
COc1cccc(C2CC(=O)Nc3cc4c(cc32)CCC4)c1 (centres undefined)	> 80 µM (inactive)
COC(=O)c1ccccc1NC1=C/C(=N\S(=O)(=O)c2cccs2)c2ccccc2C1=O	4.91 µM
O=C(OCCN1C(=O)c2cccc3c(N4CCOCC4)ccc(c23)C1=O)c1ccc(Cl)cc1	> 80 µM (inactive)
CCOC(=O)C(C)Oc1cccc2c(=O)n(CC(=O)NCc3ccc(F)cc3)ccc12 (centres undefined)	> 80 µM (inactive)
O=C(Nc1ccc(N2CCOCC2)cc1)c1ccc(Cl)c(S(=O)(=O)N2CCCCC2)c1	> 80 µM (inactive)
Cc1cc(C)cc(NC(=O)c2cc(C)n(Cc3cccs3)c2C)c1	24.1 µM (inactive)
COc1ccc(Nc2ncnc3ccc(Br)cc23)c(OC)c1	0.37 µM
Cc1ccc(C(=O)c2cc([N+](=O)[O-])ccc2N2CCOCC2)cc1C	> 80 µM (inactive)
C[C@@H]1O[C@@H](O[C@H]2C[C@@H](O)[C@]3(CO)[C@H]4[C@H](O)C[C@]5(C)[C@@H](C6COC(=O)C6)CC[C@]5(O)[C@@H]4CC[C@]3(O)C2)[C@H](O)[C@H](O)[C@H]1O (some centres undefined)	3.72 µM
COc1ccc(OC)c(COC(=O)c2cc([N+](=O)[O-])ccc2N2CCOCC2)c1	> 80 µM (inactive)
CC1=CC(C)(C)N(S(=O)(=O)c2ccc(C)cc2)c2cc(C)ccc21	> 80 µM (inactive)

Structure (SMILES)	IC50
Cc1ccc2oc(/N=C(\N)NC(=O)C(C)(C)C)nc2c1	0.47 µM
COc1ccc([C@H]2CC(=O)C=C(c3ccc(OC)cc3OC)C2)cc1	> 80 µM (inactive)
COc1ccc(C[C@H](N)C(=O)N[C@H]2[C@@H](O)[C@H](n3cnc4c(N(C)C)ncnc43)O[C@@H]2CO)cc1	1.62 µM
COc1cc(-c2noc(C)c2-c2ccc3[nH]ccc3c2)cc(OC)c1OC	> 80 µM (inactive)
CCN(CC)c1ccc(/C=N/NC(=O)c2nnn(-c3nonc3N)c2C(C)C)c(O)c1	1.5 µM
O=C(NCCc1ccccc1)c1ccc2c(c1)OCCO2	1.12 µM
O=C(N/N=C\c1c(O)ccc2ccccc12)c1cncc(Br)c1	> 80 µM (inactive)
CCCCCCCCC[n+]1cccc2c3ccccc3ccc21	1.98 µM
c1ccc2c(c1)CCN(c1ncnc3c1[nH]c1ccccc13)C2	16.8 µM
COc1ccccc1C(=O)Nc1nc2ccccc2s1	0.53 µM
COc1cccc(N2CCN(C(=O)c3ccc(CS(=O)c4ccccc4Cl)o3)CC2)c1 (centres undefined)	69.8 µM (inactive)
CCC1CCCCN1C(=O)c1cc(COc2ccc3ncccc3c2)on1 (centres undefined)	> 80 µM (inactive)
COc1ccc([C@H]2CC(=O)C=C(c3c(OC)cccc3OC)C2)cc1	> 80 µM (inactive)
COc1ccc(OC)c(C2CC(=O)c3c([nH]c(C(=O)OC(C)C)c3C)C2)c1 (centres undefined)	> 80 µM (inactive)
C=C(C)COc1ccc(-c2[nH]ncc2-c2ccc(OC)c(OC)c2)c(O)c1	41.7 µM (inactive)
CCOC(=O)CSC1=C(C#N)C(c2ccc(C)s2)CC(=O)N1 (centres undefined)	> 80 µM (inactive)
O=C(Sc1cccc2cccnc12)c1ccc(F)cc1	1.03 µM
C[C@]12CC[C@@H]3c4cc(O)c(O)cc4CC[C@H]3[C@@H]1CC[C@@H]2O	14.3 µM
C=CCNC(=S)N/N=C(\C)c1ccccn1	0.61 µM
COc1ccc(CCNc2cc(N3CCN(C(=O)c4ccccc4F)CC3)ccc2[N+](=O)[O-])cc1OC	> 80 µM (inactive)
CCOc1cccc(-c2nnc3n2N=C(c2cc(OC)ccc2OC)CS3)c1	> 80 µM (inactive)
O=c1oc2ccccc2cc1-c1cn(-c2ccccc2)c(=S)[nH]1	0.55 µM
CCCCCCCOc1ccc(OC(=O)c2cccnc2)cc1	> 80 µM (inactive)
CCOc1ccccc1C1CC(=O)Nc2cc(C)c(C)cc21 (centres undefined)	> 80 µM (inactive)
